Assays:
Assay in all cases: Well diffusion agar method, inhibition zone
Assay type in all cases: cell-based
[1] = test system: Pseudomonas aeruginosa ATCC 9027; settings: compound at 50 μg/mL in DMSO, 37° C., 24 h; for zone of inhibition at 50 µg/mL: Pseudomonas aeruginosa, ATCC9027, read-out: Inhibition zone, P. aeruginosa
Description: (§1) The ability to inhibit the growth of Gram-positive and Gram-negative bacteria, yeasts and filamentous fungi was observed using an overlay method (S. R. Connell, D. M. Tracz, K. H. Nierhaus, D. E. Taylor, Antimicrob. Agents Chemother. 47, 3675 (2003), incorporated herein by reference in its entirety).
(§2) The common pathogenic and food spoilage microorganisms were selected for their relevance in bakery products and other food: the gram-positive bacteria: Bacillus subtilits NRRL-B-4219, Staphylococcus aureus ATCC 6538, Enterococcus faecalis ATCC 19433; the gram negative bacteria: Escherichia coli ATCC 25922, Pseudomonas aeruginosa ATCC 9027, Proteus sp.; yeasts, such as Candida albicans ATCC 10231; and fungi: Aspergillus niger NRRL 2766 (equivalent to ATCC 16888), and Aspergillus flavus ATCC 16883. The bacteria were slanted on nutrient agar (Merck, Darmstadt, Germany), yeast was slanted and mentioned on Sabaroud's agar medium (Lab M., Bury, Lancashire, UK) and the fungi was slanted and mentioned on the potato Dextrose Agar medium (Lab M Limited, Bury, Lancashire, UK). Mueller-Hinton agar (Lab M., Bury, Lancashire, UK) following the manufacturer's instructions was used for the assay.
(§3) All compounds were dissolved in dimethyl sulfoxide (RFCL Limited, New Delhi, India) at 50 μg/mL concentration as shown in Table 4 in comparison with different standard antibiotics. Antibiotic discs of Streptomycin (S) (10 μg), Oxytetracycline (T) (30 μg), and Tetracyciline (TE) (30 μg) were used as positive controls for bacteria. Neomycin (N) (30 μg), was used for fungi.
(§4) The antibacterial screening was performed with the well diffusion agar method (S. T. Williams, M. Goodfellow, E. M. H. Wellington, J. C. Vickers, G. Alderson, P. H. A. Sneath, S. M. J. Sackins, A. M. Mortimer, J. Gen. Microbiol. 129, 1815(1983); and B. Bonev, J. Hooper, J. Parisot, J. Antimicrob. Chemother., 61, 1295(2008), each incorporated herein by reference in their entirety). The organisms were streaked in radial patterns on the agar plates. Plates were incubated under aerobic conditions at 37° C. and 28° C. for 24 h and 48 h for bacteria and fungi, respectively. All prepared solutions were treated under the same conditions under the same incubated plates. All tests were performed in triplicate. Plates were examined for evidence of antimicrobial activities, represented by a zone of inhibition of the microorganism's growth around the holes, and diameters of clear zones were expressed in millimeters (R. Cruickshank, J. P. Duguid, B. P. Marmion, R. H. A. Swain, The practice of medicinal microbiology. In Medical Microbiology, 12th ed.; Churchill Livingstone: Edinburgh, UK, Volume 11, pp. 196-202 (1975), incorporated herein by reference in its entirety).

[2] = test system: Aspergillus flavus ATCC 16883; settings: for zone of inhibition at 50 µg/mL: Aspergillus flavus, ATCC16883; for Antifungal activity (in words): A. flavus, in comparison with Neomycin
Description: as §1, §2, §3, §4

[3] = test system: Bacillus subtilits NRRL-B-4219; settings: compound at 50 μg/mL in DMSO, 37° C., 24 h; for zone of inhibition at 50 µg/mL: Bacillus, NRRLB4219
Description: as §1, §2, §3, §4

[4] = test system: Aspergillus niger NRRL 2766; settings: for zone of inhibition at 50 µg/mL / Antifungal effect (in words): Aspergillus niger; for zone of inhibition at 50 µg/mL: NRRL2766; for Antifungal effect (in words): in comparison with Neomycin
Description: as §1, §2, §3, §4

[5] = test system: Staphylococcus aureus ATCC 6538; settings: compound at 50 μg/mL in DMSO, 37° C., 24 h; for zone of inhibition at 50 µg/mL: Staphylococcus aureus, ATCC6538, read-out: Inhibition zone, S. aureus
Description: as §1, §2, §3, §4

[6] = test system: Enterococcus faecalis ATCC 19433; settings: compound at 50 μg/mL in DMSO, 37° C., 24 h; for zone of inhibition at 50 µg/mL: Enterococcus faecalis, ATCC19433, read-out: Inhibition zone, Ent. faecalis
Description: as §1, §2, §3, §4

[7] = test system: Candida albicans ATCC 10231; settings: compound at 50 μg/mL in DMSO, 28° C., 48 h; for zone of inhibition at 50 µg/mL: Candida albicans, ATCC10231
Description: as §1, §2, §3, §4

Proteus sp. = settings: compound at 50 μg/mL in DMSO; 37° C., 24 h
Description: as §1, §2, §3, §4

[8] = test system: Escherichia coli ATCC 25922; settings: compound at 50 μg/mL in DMSO, 37° C., 24 h; for zone of inhibition at 50 µg/mL: Escherichia coli, ATCC25922, read-out: Inhibition zone, E. coli
Description: as §1, §2, §3, §4

[9] = compound at 50 μg/mL in DMSO, 28° C., 48 h

Molecule	zone of inhibition at 50 µg/mL [1]	zone of inhibition at 50 µg/mL [2, 9]	zone of inhibition at 50 µg/mL [3]	zone of inhibition at 50 µg/mL [4, 9]	zone of inhibition at 50 µg/mL [5]	zone of inhibition at 50 µg/mL [6]	zone of inhibition at 50 µg/mL [7]	zone of inhibition at 50 µg/mL (Proteus sp.)	zone of inhibition at 50 µg/mL [8]	Antifungal activity (in words) [2]	Antifungal effect (in words) [4]	Inhibition zone, P. aeruginosa [1]	Inhibition zone, A. flavus [2, 9]	Inhibition zone, B. subtilits [3]	Inhibition zone, A. niger [4, 9]	Inhibition zone, S. aureus [5]	Inhibition zone, Ent. faecalis [6]	Inhibition zone, C. albicans [7]	Inhibition zone, Proteus sp. (Proteus sp.)	Inhibition zone, E. coli [8]
CCOC1Oc2ccccc2C(=O)C1=NNc1ccccc1OC (stereo not shown) [Compound 6b, 2-ethoxy-3-(2-(2-methoxyphenyl)hydrazono)chroman-4-one]	0 mm	0 mm	16 mm	0 mm	13 mm	0 mm	0 mm	0 mm	12 mm											
CCOC1Oc2ccccc2C(=O)C1=NNc1ccc(Cl)cc1 (stereo not shown) [Compound 6c, 3-[(4-Chlorophenyl)hydrazono]-2-ethoxychroman-4-one]	28 mm	17 mm	32 mm	18 mm	30 mm	21 mm	20 mm	26 mm	30 mm	moderate activity	more potent antifungal effect									
Ethoxy-3-[(4-nitro-phenyl)-hydrazono]-chroman-one [Compound 6a]										moderate activity	more potent antifungal effect	30 mm	22 mm	32 mm	22 mm	28 mm	25 mm	24 mm	27 mm	33 mm

Source: patent US10266510B2, “Antimicrobial and cytotoxic compounds and methods for treating cancer, a bacterial infection, and/or a fungal infection” (King Abdulaziz University, priority 2017, dated 2019)
